Measurements published in PMC10017709, “Structural basis of selective cannabinoid CB2 receptor activation” (Nature Communications, 2023).
“And” between values parts separate entries of the source, which are not always exact repeats. Equal values may be shown once.

Experiments:
[1] = target: CB2R-S285^7.39A (Homo sapiens, UniProt P34972, S285A); assay: [35S]GTPγS assay, CB2R S285A mutant; assay type: biochemical; details: S285A mutant; at 10 µM compared to WT; read-out: Emax (%)
[2] = target: CB2R-F117^3.36A (Homo sapiens, UniProt P34972, F117A); assay: [35S]GTPγS assay, CB2R F117A mutant; assay type: biochemical
[3] = target: CB2R-H95^2.65A (Homo sapiens, UniProt P34972, H95A); assay: [35S]GTPγS assay, CB2R H95A mutant; assay type: biochemical
[4] = target: CB2R-V261^6.51L (Homo sapiens, UniProt P34972, V261L); assay: [35S]GTPγS assay, CB2R V261L mutant; assay type: biochemical; details: for [35S]GTPγS binding: V2616.51L, individual replicates
[5] = target: CB2R-E181^ECL2D (Homo sapiens, UniProt P34972, E181D); assay: [35S]GTPγS assay, CB2R E181D mutant; assay type: biochemical; details: E181D mutant; at 10 µM compared to WT; read-out: Emax (%)
[6] = target: CB2R-Quadruple^TM1,7 (Homo sapiens, UniProt P34972, C40S/K279T/K33Q/V36I); assay: [35S]GTPγS assay, CB2R quadruple mutant; assay type: biochemical; details: for [35S]GTPγS binding: QuadrupleTM1,7, individual replicates
[7] = target: CB1R-H270^ECL2L (Homo sapiens, UniProt P21554, H270L); assay: [3H]CP55,940 displacement assay, CB1R H270L mutant; assay type: binding
[8] = target: T1, CB1R D266ECL2E (Homo sapiens, UniProt P21554, D266E); assay: [35S]GTPγS assay, CB1R D266E mutant; assay type: biochemical; details: CB1R D266E; 10 µM agonist
T1 construct: The WT CB1R and CB2R genes were subcloned into vector pcDNA3.1; HA signal peptide (N); expressed in transfected cells; host or cells: HEK293T (transient, membrane homogenates)

[9] = tested on: CB1R QuadrupleTM1,7; assay: [35S]GTPγS assay, CB1R quadruple mutant; assay type: biochemical, human; details: CB1R Quadruple TM1,7; 10 µM agonist
[10] = tested on: chronic abdominal pain associated with Crohn’s disease; details: 14 patients with chronic abdominal pain associated with Crohn’s disease; cited from earlier work

CB2R-V261^6.51L, sequence (P34972 whole entry V261L): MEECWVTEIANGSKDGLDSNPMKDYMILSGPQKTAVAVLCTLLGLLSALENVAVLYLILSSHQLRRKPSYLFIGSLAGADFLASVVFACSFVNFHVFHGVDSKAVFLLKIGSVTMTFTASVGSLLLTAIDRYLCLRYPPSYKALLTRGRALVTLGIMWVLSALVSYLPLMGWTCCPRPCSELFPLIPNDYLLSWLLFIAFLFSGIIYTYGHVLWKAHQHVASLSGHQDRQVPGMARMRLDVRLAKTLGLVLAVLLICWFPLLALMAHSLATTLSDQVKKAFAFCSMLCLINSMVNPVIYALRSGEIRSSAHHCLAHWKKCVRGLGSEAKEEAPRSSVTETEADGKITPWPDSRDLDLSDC
CB2R-F117^3.36A, sequence (P34972 whole entry F117A): as the sequence (P34972 whole entry V261L) above, with F117A, L261V counted along it
CB2R-Quadruple^TM1,7, sequence (P34972 whole entry K33Q/V36I/C40S/K279T): as the sequence (P34972 whole entry V261L) above, with K33Q, V36I, C40S, L261V, K279T counted along it
CB1R-H270^ECL2L, sequence (P21554 whole entry H270L): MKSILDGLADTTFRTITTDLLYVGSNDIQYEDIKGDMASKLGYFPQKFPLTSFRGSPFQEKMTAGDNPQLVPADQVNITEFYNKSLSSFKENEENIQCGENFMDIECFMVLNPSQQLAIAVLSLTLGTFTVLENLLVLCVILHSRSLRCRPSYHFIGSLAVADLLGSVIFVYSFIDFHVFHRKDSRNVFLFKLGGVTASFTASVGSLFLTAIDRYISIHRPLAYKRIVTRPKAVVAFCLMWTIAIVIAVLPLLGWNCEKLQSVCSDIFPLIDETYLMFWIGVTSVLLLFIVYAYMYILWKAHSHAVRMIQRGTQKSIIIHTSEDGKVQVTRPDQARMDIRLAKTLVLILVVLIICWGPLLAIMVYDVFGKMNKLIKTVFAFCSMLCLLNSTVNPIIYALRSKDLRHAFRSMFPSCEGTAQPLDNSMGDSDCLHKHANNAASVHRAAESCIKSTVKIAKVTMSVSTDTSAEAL
CB2R-H95^2.65A, sequence (P34972 whole entry H95A): as the sequence (P34972 whole entry V261L) above, with H95A, L261V counted along it
T1 sequence (P21554 whole entry D266E): as the sequence (P21554 whole entry H270L) above, with D266E, L270H counted along it
CB2R-S285^7.39A, sequence (P34972 whole entry S285A): as the sequence (P34972 whole entry V261L) above, with L261V, S285A counted along it
CB2R-E181^ECL2D, sequence (P34972 whole entry E181D): as the sequence (P34972 whole entry V261L) above, with E181D, L261V counted along it

Emax [1]: 49 ± 6%
Emax ([2]; F117A mutant, at 10 µM compared to WT, read-out: Emax (%)): 2 ± 6%
drop in potency compared to WT ([3]; H95A mutant vs WT, [35S]GTPγS): 158 fold
Emax ([3]; H95A mutant, at 10 µM compared to WT, read-out: Emax (%)): 50 ± 1%
drop in potency compared to WT ([4]; V261L mutant vs WT, [35S]GTPγS): 10 fold
Emax ([4]; V261L mutant, at 10 µM compared to WT, read-out: Emax (%)): 6 ± 2%
Emax [5]: 39 ± 6%
Emax ([6]; Quadruple TM1,7 mutant, at 10 µM compared to WT, read-out: Emax (%)): 35 ± 7%
Displacement (%) of [3H]CP55,940 ([7]; CB1R H270L, 10 µM compound): 8 ± 3%
Agonist-mediated activation [8]: 0.9 ± 0.1 fold over its basal
Compound: CC(C)(C)[C@@H](CO)NC(=O)c1nn(-c2c[n+]([O-])ccn2)c2c1C[C@@H]1C[C@H]21 [APD371]
[35S]GTPγS binding ([2]; F1173.36A, log [ligand] (M) -5, individual replicates): -3.66 percentage of WT and 14.36 percentage of WT and -4.64 percentage of WT
[35S]GTPγS binding ([4]; log [ligand] (M) -5): 2.52 percentage of WT and 5.75 percentage of WT and 9.01 percentage of WT
[35S]GTPγS binding ([4]; log [ligand] (M) -6): -3.29 percentage of WT and 5.08 percentage of WT and 17.22 percentage of WT
[35S]GTPγS binding ([4]; log [ligand] (M) -7): 3.77 percentage of WT and -3.23 percentage of WT and 7.12 percentage of WT
[35S]GTPγS binding ([4]; log [ligand] (M) -8): -13.41 percentage of WT and -9.01 percentage of WT and -7.07 percentage of WT
[35S]GTPγS binding ([4]; log [ligand] (M) -9): -3.12 percentage of WT and -6.34 percentage of WT and -8.82 percentage of WT
[35S]GTPγS binding ([4]; log [ligand] (M) -10): 6.63 percentage of WT and -9.97 percentage of WT and -1.94 percentage of WT
[35S]GTPγS binding ([6]; log [ligand] (M) -5): 35.07 percentage of WT and 47.26 percentage of WT and 22.67 percentage of WT
[35S]GTPγS binding ([6]; log [ligand] (M) -6): 15.07 percentage of WT and 38.79 percentage of WT and 23.35 percentage of WT
[35S]GTPγS binding ([6]; log [ligand] (M) -7): -3.98 percentage of WT and 20.94 percentage of WT and 22.86 percentage of WT
[35S]GTPγS binding ([6]; log [ligand] (M) -8): 22.19 percentage of WT and 25.68 percentage of WT and 22.32 percentage of WT
[35S]GTPγS binding ([6]; log [ligand] (M) -9): -7.96 percentage of WT and -0.64 percentage of WT and 0.99 percentage of WT
[35S]GTPγS binding ([6]; log [ligand] (M) -10): -4.29 percentage of WT and 0.80 percentage of WT and 9.16 percentage of WT
percentage specific [3H]CP55,940 binding ([7]; CB1R H270ECL2L, 10 µM ligand, replicates 1-3): 89.52 percentage and 87.15 percentage and 98.55 percentage
Agonist-mediated activation [9]: 1.1 ± 0.0 fold over its basal
abdominal pain scores [10]: improvement
adverse events [10]: mild-to-moderate adverse events
